We go through 1 compound from patent US8883841B2, “Oncogenic ras-specific cytotoxic compound and methods of use thereof” (The Board of Regents of the University of Texas System, priority 2005, dated 2014).

The test system of data set [1] is TNFα-mediated NFκB activation. Nature of the data set: Electrophoretic mobility shift assay (EMSA) of NFκB activity. In kind it is cell-based, human. The conditions noted are these: 12 h, TNFα 1 ng/ml. How it is done: FIGS. 11A-11C Suppression of TNFα-induced NFκB activation. NKκB reporter plasmid assay. T29K cells were transfected with pNFκB-Luc and pCMV-lacZ. 12 h later, the cells were treated with TNFα (1 ng/ml) with or without (FIG. 11A) Oncrasin-1 (10 μM) or (FIG. 11B) Sulindac (10 μm). The luciferase activity was determined at 8 h after the treatment and normalized with beta-gal activity. (FIG. 11C) H460 and T29K cells were treated with DMSO or different concentrations of Oncrasin-1 as indicated for 12 h, with or without TNFα (1 ng/ml). The NFκB activity was analyzed by EMSA.
Suppression of NFκB. In a separated study, the effect of Oncrasin compounds on NF-κB activity was assessed. Nuclear factor-κB (NF-κB)/Rel represents a group of structurally related and evolutionarily conserved transcriptional factors that play critical roles in chronic and acute inflammatory diseases, autoimmune diseases and various type of cancers (Karin and Neriah, 2000; Karin and Karin, 2006; Barnes et al., 1997). In unstimulated cells, most NF-κB/Rel dimers are bound to IκBs and retained in the cytoplasm. Upon a various stimulations, IκBs are phosphorylated and rapidly degraded, releasing NF-κB, which then enters the nucleus and executes transcriptional functions. […] The luciferase activity was determined and normalized for transfection with beta-galactosidase activity. […]
(In general: Mobility shift assays separate free from complexed probe on a gel.)

In data set [2] the test system is H322 cells. Nature of the data set: Cell viability, H322 lung cancer cells. In kind it is cell-based, human.
Data set [3] has as its system T29Ht1 cells.

Entries after “also recorded” stand apart in the source; their conditions may differ.

With `O=Cc1cn(Cc2ccc(Cl)cc2)c2ccccc12` [Oncrasin K001, 1H-Indole-3-carboxaldehyde, 1-[(4-chlorophenyl)methyl]-(9CI)], in data set [1], the “concentration that effectively suppresses TNFα-mediated NFκB activation, H460 cells” value was at least 1 µM and the “concentration that effectively suppresses TNFα-mediated NFκB activation, T29Kt1 cells” value is at least 1 µM. The “IC50 (−LogM)” value in data set [2] (H322, Lung) is 4.5 −LogM. For the same compound, in data set [2] (at 33 μM (the highest concentration tested), ras wild-type), the “toxicity to H322 cells” value was “not toxic”. Moreover, the “effect on H322 cells” value in data set [2] (wild-type Ras, listed as Oncrasin-1) was “minimal effect; also recorded: not effective”. In addition, in data set [3] (at 33 μM (the highest concentration tested)), the “toxicity to T29H cells” value is on record as “not toxic”. Further, in data set [3] (at any of the doses tested (dose response)), the “toxicity to T29Ht1 (T29H) cells” value is given as “not toxic”. In data set [3] (up to 100 μM, the highest concentration tested), the “cytotoxicity in T29Ht1 cells” value is recorded as “no detectable cytotoxicity”.
